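Following 48 hours of exposure in 96-well plates, responses at five concentrations were used to interpolate endpoints linearly. At the TGI there is no net growth.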
Legend:
Test in all cases: DTP human tumour cell line panel, 48 h
[1] = test system: 786-0 renal
[2] = test system: A498 renal
[3] = test system: A549 NSCLC
[4] = test system: ACHN renal
[5] = test system: BT-549 breast
[6] = test system: CAKI-1 renal
[7] = test system: CCRF-CEM leukemia
[8] = test system: COLO 205 colon
[9] = test system: DU-145 prostate
[10] = test system: EKVX NSCLC
[11] = test system: HCC-2998 colon
[12] = test system: HCT-116 colon
[13] = test system: HCT-15 colon
[14] = test system: HL-60(TB) leukemia
[15] = test system: HOP-62 NSCLC
[16] = test system: HOP-92 NSCLC
[17] = test system: HS 578T breast
[18] = test system: HT29 colon
[19] = test system: IGROV1 ovarian
[20] = test system: K-562 leukemia
[21] = test system: KM12 colon
[22] = test system: LOX IMVI melanoma
[23] = test system: M14 melanoma
[24] = test system: MALME-3M melanoma
[25] = test system: MCF7 breast
[26] = test system: MDA-MB-231 breast
[27] = test system: MDA-MB-435
[28] = test system: MDA-N
[29] = test system: MOLT-4 leukemia
[30] = test system: NCI-H226 lung
[31] = test system: NCI-H23 lung
[32] = test system: NCI-H460 lung
[33] = test system: NCI-H522 lung
[34] = test system: NCI/ADR-RES ovarian
[35] = test system: OVCAR-3 ovarian
[36] = test system: OVCAR-4 ovarian
[37] = test system: OVCAR-5 ovarian
[38] = test system: OVCAR-8 ovarian
[39] = test system: PC-3 prostate
[40] = test system: RPMI-8226 leukemia
[41] = test system: RXF 393 renal
[42] = test system: SF-268 CNS
[43] = test system: SF-295 CNS
[44] = test system: SF-539 CNS
[45] = test system: SK-MEL-2 melanoma
[46] = test system: SK-MEL-28 melanoma
[47] = test system: SK-MEL-5 melanoma
[48] = test system: SK-OV-3 ovarian
[49] = test system: SN12C renal
[50] = test system: SNB-19 CNS
[51] = test system: SNB-75 CNS
[52] = test system: SR leukemia
[53] = test system: SW-620 colon
[54] = test system: T-47D breast
[55] = test system: TK-10 renal
[56] = test system: U251 CNS
[57] = test system: UACC-257 melanoma
[58] = test system: UACC-62 melanoma
[59] = test system: UO-31 renal

SMILES: CC(=O)O/C=C\OC1CCCC1(c1ccccc1)c1ccccc1 (stereo unspecified)
- TGI [1]: 7.75 µM
- TGI [2]: 32.9 µM
- TGI [3]: 43.8 µM
- TGI [4]: 4.36 µM
- TGI [5]: 4.66 µM
- TGI [6]: 14.3 µM
- TGI [7]: 5.71 µM
- TGI [8]: 13.8 µM
- TGI [9]: 13.7 µM
- TGI [10]: 20.7 µM
- TGI [11]: 24.3 µM
- TGI [12]: 4.19 µM
- TGI [13]: 4.7 µM
- TGI [14]: 2.89 µM
- TGI [15]: 25.4 µM
- TGI [16]: 3.89 µM
- TGI [17]: 9.8 µM
- TGI [18]: 8.71 µM
- TGI [19]: 6.08 µM
- TGI [20]: 9.05 µM
- TGI [21]: 12.9 µM
- TGI [22]: 3.14 µM
- TGI [23]: 5.75 µM
- TGI [24]: 4.61 µM
- TGI [25]: 5.42 µM
- TGI [26]: 5.51 µM
- TGI [27]: 4.11 µM
- TGI [28]: 5 µM
- TGI [29]: 9.07 µM
- TGI [30]: 24.8 µM
- TGI [31]: 8.11 µM
- TGI [32]: 26.6 µM
- TGI [33]: 23.3 µM
- TGI [34]: 8.53 µM
- TGI [35]: 7.59 µM
- TGI [36]: 7.25 µM
- TGI [37]: 15.3 µM
- TGI [38]: 7.3 µM
- TGI [39]: 9.15 µM
- TGI [40]: 6.13 µM
- TGI [41]: 5.06 µM
- TGI [42]: 10.3 µM
- TGI [43]: 23 µM
- TGI [44]: 3.68 µM
- TGI [45]: 12.5 µM
- TGI [46]: 4.59 µM
- TGI [47]: 7.19 µM
- TGI [48]: 27.6 µM
- TGI [49]: 10.3 µM
- TGI [50]: 26.3 µM
- TGI [51]: 11.5 µM
- TGI [52]: 4.93 µM
- TGI [53]: 4.72 µM
- TGI [54]: 6.19 µM
- TGI [55]: 9.33 µM
- TGI [56]: 11.6 µM
- TGI [57]: 13.6 µM
- TGI [58]: 17.5 µM
- TGI [59]: 3.61 µM

SMILES: COc1ccc2c(c1)OC(c1cccnc1)C(c1ccccc1)C2=O (stereo unspecified)
- TGI [1]: > 100 µM
- TGI [2]: > 100 µM
- TGI [3]: > 100 µM
- TGI [4]: > 100 µM
- TGI [5]: > 100 µM
- TGI [6]: > 100 µM
- TGI [7]: > 100 µM
- TGI [8]: > 100 µM
- TGI [9]: > 100 µM
- TGI [10]: > 100 µM
- TGI [11]: > 100 µM
- TGI [12]: > 100 µM
- TGI [13]: > 100 µM
- TGI [14]: > 100 µM
- TGI [15]: > 100 µM
- TGI [16]: > 100 µM
- TGI [17]: > 100 µM
- TGI [18]: > 100 µM
- TGI [19]: > 100 µM
- TGI [20]: > 100 µM
- TGI [21]: > 100 µM
- TGI [22]: > 100 µM
- TGI [23]: > 100 µM
- TGI [24]: > 100 µM
- TGI [25]: > 100 µM
- TGI [26]: > 100 µM
- TGI [27]: > 100 µM
- TGI [28]: > 100 µM
- TGI [29]: > 100 µM
- TGI [30]: > 100 µM
- TGI [31]: > 100 µM
- TGI [32]: > 100 µM
- TGI [33]: > 100 µM
- TGI [34]: > 100 µM
- TGI [35]: > 100 µM
- TGI [36]: > 100 µM
- TGI [37]: > 100 µM
- TGI [38]: > 100 µM
- TGI [39]: > 100 µM
- TGI [40]: > 100 µM
- TGI [41]: > 100 µM
- TGI [42]: > 100 µM
- TGI [43]: > 100 µM
- TGI [44]: > 100 µM
- TGI [45]: > 100 µM
- TGI [46]: > 100 µM
- TGI [47]: > 100 µM
- TGI [48]: > 100 µM
- TGI [49]: > 100 µM
- TGI [50]: > 100 µM
- TGI [51]: > 100 µM
- TGI [52]: > 100 µM
- TGI [53]: > 100 µM
- TGI [54]: > 100 µM
- TGI [55]: > 100 µM
- TGI [56]: > 100 µM
- TGI [57]: > 100 µM
- TGI [58]: > 100 µM
- TGI [59]: > 100 µM

SMILES: CC(C)Oc1c(-c2c(OC(C)C)c(=O)c2=O)c(=O)c1=O
- TGI [1]: > 66 µM
- TGI [2]: > 100 µM
- TGI [3]: > 100 µM
- TGI [4]: > 100 µM
- TGI [5]: > 61.3 µM
- TGI [6]: > 100 µM
- TGI [7]: > 100 µM
- TGI [8]: > 51.9 µM
- TGI [9]: > 100 µM
- TGI [10]: > 64.9 µM
- TGI [11]: > 100 µM
- TGI [12]: > 51 µM
- TGI [13]: > 100 µM
- TGI [14]: > 100 µM
- TGI [15]: > 85.2 µM
- TGI [16]: > 100 µM
- TGI [17]: > 67 µM
- TGI [18]: > 58.3 µM
- TGI [19]: > 51.5 µM
- TGI [20]: > 54.7 µM
- TGI [21]: > 59.6 µM
- TGI [22]: > 47.1 µM
- TGI [23]: > 100 µM
- TGI [24]: 4 µM
- TGI [25]: > 41.8 µM
- TGI [26]: > 57.2 µM
- TGI [27]: > 41.6 µM
- TGI [28]: > 38.6 µM
- TGI [29]: > 68.1 µM
- TGI [30]: > 100 µM
- TGI [31]: > 75.6 µM
- TGI [32]: > 100 µM
- TGI [33]: > 27.7 µM
- TGI [34]: 26.8 µM
- TGI [36]: > 62.9 µM
- TGI [37]: > 100 µM
- TGI [38]: > 71.9 µM
- TGI [39]: > 100 µM
- TGI [40]: > 71.8 µM
- TGI [41]: > 78.5 µM
- TGI [42]: > 75.9 µM
- TGI [43]: > 100 µM
- TGI [44]: > 100 µM
- TGI [45]: > 89.1 µM
- TGI [46]: > 100 µM
- TGI [47]: > 61.8 µM
- TGI [48]: > 100 µM
- TGI [49]: > 62.7 µM
- TGI [50]: > 100 µM
- TGI [51]: > 71.2 µM
- TGI [52]: > 100 µM
- TGI [53]: > 62 µM
- TGI [54]: > 100 µM
- TGI [55]: > 100 µM
- TGI [56]: > 59.9 µM
- TGI [57]: > 100 µM
- TGI [58]: > 61.5 µM
- TGI [59]: > 100 µM
